Laboratory results from paper PMC9780888, “4-Isobutylmethcathinone—A Novel Synthetic Cathinone with High In Vitro Cytotoxicity and Strong Receptor Binding Preference of Enantiomers” (Pharmaceuticals, 2022).
Counter-ions that a name gives are not always drawn.

Biological target: T1, ADRB2 (beta-2 adrenergic receptor) (Homo sapiens, UniProt P07550)
T1 construct: Tango construct (TEV cleavage site and tTA, as described for the dopamine receptor plasmids); host or cells: HTLA (HEK 293-derived)
Assay: PRESTO-Tango β-arrestin 2 recruitment assay, ADRB2
Type: cell-based
Method: The HTLA cell line was used for the PRESTO-Tango β-arrestin recruitment assay. The HTLA cells were provided as a gift from the laboratory of Bryan Roth (Roth Lab, USA). It is a human cell line derived from human embryonic kidney cells (HEK 293) stably expressing β-arrestin in a fusion with the tobacco etch virus protease (TEV) protease and the luciferase gene under the control of the transcription factor tetracycline transcriptional activator (tTA). The HTLA cells were cultured under standard incubation conditions (37 °C, 5% CO2, 95% humidity) in DMEM with 10% FBS. […]
The transfected HTLA cells were incubated for 24 h, and then 1 × 10^4 cells were seeded per well of a white 96-well clear bottom plate (Brand, Germany) in 40 μL of DMEM with 1% charcoal-stripped FBS (Thermo Fisher Scientific, USA). […] After 5 min., the luminescence was measured using a multi-mode microplate reader SpectraMax iD5 (Molecular Devices, San Jose, CA, USA) measuring the entire wavelength spectrum. All samples were measured in quadruplicates. The data were evaluated by Prism 7 software (GraphPad, […], CA, USA). […]
The error bar represents standard deviation from four replicates. The data were processed and evaluated by GraphPad Prism Software using one-way ANOVA: * p<0.05; ** p<0.01; *** […]

T1 sequence (P07550 whole entry): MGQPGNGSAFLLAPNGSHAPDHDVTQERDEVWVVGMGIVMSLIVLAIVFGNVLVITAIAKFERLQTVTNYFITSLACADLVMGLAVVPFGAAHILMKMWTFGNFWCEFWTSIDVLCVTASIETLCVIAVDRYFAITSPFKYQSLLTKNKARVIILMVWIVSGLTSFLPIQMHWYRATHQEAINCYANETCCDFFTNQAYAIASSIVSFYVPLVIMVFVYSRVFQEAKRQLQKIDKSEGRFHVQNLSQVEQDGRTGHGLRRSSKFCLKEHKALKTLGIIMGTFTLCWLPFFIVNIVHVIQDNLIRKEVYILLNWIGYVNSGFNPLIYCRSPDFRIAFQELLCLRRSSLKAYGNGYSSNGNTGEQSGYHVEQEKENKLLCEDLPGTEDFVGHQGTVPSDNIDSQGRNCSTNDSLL

Structure (SMILES) | increase in the luminescence signal (ADRB2, 50 and 100 nM) [fold] | increase in the luminescence signal (ADRB2, 1 and 5 nM) [fold]
CNC(C)C(=O)c1ccc(CC(C)C)cc1.Cl (centres unmarked) [IBMcat, 4-isobutylmethcathinone hydrochloride] | 1.5 | 
CN[C@@H](C)C(=O)c1ccc(CC(C)C)cc1 [S-IBMCat, (S)-4-isobutylmethcathinone hydrochloride] |  | 1.5
